# Reference: patent US7989649B2, “Tumor imaging compounds” (Emory University, priority 2002, dated 2011)
# Assays:
# 9 L gliosarcoma tumor = assay: Biodistribution in Fischer rats with intracranial 9 L gliosarcoma tumor; format: in vivo; details: for Tissue distribution of radioactivity, Blood / Tissue distribution of radioactivity, Bone / Tissue distribution of radioactivity, Heart / Tissue distribution of radioactivity, Kidney / Tissue distribution of radioactivity, Liver / Tissue distribution of radioactivity, Lung / Tissue distribution of radioactivity, Muscle / Tissue distribution of radioactivity, Pancreas / Tissue distribution of radioactivity, Spleen / Tissue distribution of radioactivity, Testis / Tissue distribution of radioactivity, Tumor / Tissue distribution of radioactivity, Brain: tumor-bearing Fischer rats; for Tissue distribution of radioactivity, Brain: normal brain contralateral to tumor
# Protocol: Tumor induction and animal preparation. All animal experiments were carried out under humane conditions and were approved by the Institutional Animal Use and Care Committee (IUCAC) at Emory University. Rat 9 L gliosarcoma cells were implanted into the brains of male Fischer rats as described previously [Shoup, T M et al. (1999), J. Nucl. Med. 40:331-338]. Briefly, anesthetized rats placed in a stereotactic head holder were injected with a suspension of 4×10^4 rat 9 L gliosarcoma cells (1×10^7 per mL) in a location 3 mm right of midline and 1 mm anterior to the bregma at a depth of 5 mm deep to the outer table. The injection was performed over the course of 2 minutes, and the needle was withdrawn over the course of 1 minute to minimize the backflow of tumor cells. The burr hole and scalp incision were closed, and the animals were returned to their original colony after recovering from the procedure. Intracranial tumors developed that produced weight loss, apathy and hunched posture in the tumor-bearing rats, and the animals were used at 17-19 days after implantation. Of the 30 animals implanted with tumor cells, 25 developed tumors visible to the naked eye upon dissection and were used in the study.
# The tissue distribution of radioactivity was also determined in tumor-bearing Fischer 344 rats following intravenous injection of ˜35 μCi of [^18F]5a or [^18F]5b in 0.3 mL of sterile water. The procedure was similar to that already described for normal rats with the following modifications. The tail vein injections were performed in awake animals using a RTV-190 rodent restraint device (Braintree Scientific) to avoid mortality accompanying anesthesia in the presence of an intracranial mass. The animals were killed at 5 minutes, 60 minutes or 120 minutes post-injection. The same tissues were assayed as in normal rats with the addition of the tumor tissue, and the corresponding region of brain contralateral to the tumor was excised and used for comparison. The uptake in the tumor and contralateral brain at each time point was compared via a two-tailed t-test for paired observations (GraphPad Prism software package).
# [1] = Rodent biodistribution study in normal Fischer rats; format: in vivo, rat; details: for Tissue distribution of radioactivity, Blood / Tissue distribution of radioactivity, Bone / Tissue distribution of radioactivity, Brain / Tissue distribution of radioactivity, Heart / Tissue distribution of radioactivity, Kidney / Tissue distribution of radioactivity, Liver / Tissue distribution of radioactivity, Lung / Tissue distribution of radioactivity, Muscle / Tissue distribution of radioactivity, Pancreas / Tissue distribution of radioactivity, Spleen / Tissue distribution of radioactivity, Testis: normal Fischer rats
# Protocol: Rodent biodistribution studies. The same procedures were used to evaluate [^18F]5a and [^18F]5b separately in rodents. The tissue distribution of radioactivity was determined in 16 normal male Fischer 344 rats (200-250 g) after intravenous injection of ˜85 μCi of [^18F]5a or [^18F]5b in 0.3 mL of sterile water. The animals were allowed food and water ad libitum before the experiment. Following anesthesia induced with an intramuscular injection of 0.1 mL/100 g of a 1:1 ketamine ([…]):xylazine (20 mg/mL) solution, the radiolabeled amino acid was injected into the rats via tail vein catheters. Groups of four rats were killed at 5 minutes, 30 minutes, 60 minutes and 120 minutes after injection of the dose. The animals were dissected, and selected tissues were weighed and counted along with dose standards in a Packard Cobra II Auto-Gamma Counter. The raw counts were decay corrected, and the counts were normalized as the percent of total injected dose per gram of tissue (% ID/g). A comparison of the uptake of activity in the tissues at each time point was analyzed using a 1-way ANOVA (GraphPad Prism software package).
# [2] = 5 min after injection, listed as [^18F]FAMP (5a)
# [3] = 60 min after injection, listed as [^18F]FAMP (5a)
# [4] = 120 min after injection, listed as [^18F]FAMP (5a)
smiles,measurement,setting,value
"CC(N)(CF)C(=O)O (racemic) [[^18F]5a, 2-amino-3-fluoro-2-methylpropanoic acid]","Tissue distribution of radioactivity, Blood",9 L gliosarcoma tumor; 5 min after injection,0.72 ± 0.05 percent dose per gram
same,"Tissue distribution of radioactivity, Bone",9 L gliosarcoma tumor; 5 min after injection,0.38 ± 0.04 percent dose per gram
same,"Tissue distribution of radioactivity, Heart",9 L gliosarcoma tumor; 5 min after injection,0.40 ± 0.04 percent dose per gram
same,"Tissue distribution of radioactivity, Kidney",9 L gliosarcoma tumor; 5 min after injection,8.66 ± 1.27 percent dose per gram
same,"Tissue distribution of radioactivity, Liver",9 L gliosarcoma tumor; 5 min after injection,0.77 ± 0.22 percent dose per gram
same,"Tissue distribution of radioactivity, Lung",9 L gliosarcoma tumor; 5 min after injection,0.84 ± 0.03 percent dose per gram
same,"Tissue distribution of radioactivity, Muscle",9 L gliosarcoma tumor; 5 min after injection,0.39 ± 0.02 percent dose per gram
same,"Tissue distribution of radioactivity, Pancreas",9 L gliosarcoma tumor; 5 min after injection,5.31 ± 0.68 percent dose per gram
same,"Tissue distribution of radioactivity, Spleen",9 L gliosarcoma tumor; 5 min after injection,0.72 ± 0.06 percent dose per gram
same,"Tissue distribution of radioactivity, Testis",9 L gliosarcoma tumor; 5 min after injection,0.22 ± 0.02 percent dose per gram
same,"Tissue distribution of radioactivity, Tumor",9 L gliosarcoma tumor; 5 min after injection,0.91 percent dose per gram
same,"Tissue distribution of radioactivity, Tumor",9 L gliosarcoma tumor; [2],0.91 ± 0.05 percent dose per gram
same,"Tissue distribution of radioactivity, Blood",9 L gliosarcoma tumor; 60 min after injection,0.26 ± 0.03 percent dose per gram
same,"Tissue distribution of radioactivity, Bone",9 L gliosarcoma tumor; 60 min after injection,0.25 ± 0.05 percent dose per gram
same,"Tissue distribution of radioactivity, Heart",9 L gliosarcoma tumor; 60 min after injection,0.33 ± 0.06 percent dose per gram
same,"Tissue distribution of radioactivity, Kidney",9 L gliosarcoma tumor; 60 min after injection,6.20 ± 1.45 percent dose per gram
same,"Tissue distribution of radioactivity, Liver",9 L gliosarcoma tumor; 60 min after injection,0.66 ± 0.16 percent dose per gram
same,"Tissue distribution of radioactivity, Lung",9 L gliosarcoma tumor; 60 min after injection,0.38 ± 0.04 percent dose per gram
same,"Tissue distribution of radioactivity, Muscle",9 L gliosarcoma tumor; 60 min after injection,0.31 ± 0.03 percent dose per gram
same,"Tissue distribution of radioactivity, Pancreas",9 L gliosarcoma tumor; 60 min after injection,2.86 ± 0.34 percent dose per gram
same,"Tissue distribution of radioactivity, Spleen",9 L gliosarcoma tumor; 60 min after injection,0.55 ± 0.08 percent dose per gram
same,"Tissue distribution of radioactivity, Testis",9 L gliosarcoma tumor; 60 min after injection,0.14 ± 0.02 percent dose per gram
same,"Tissue distribution of radioactivity, Tumor",9 L gliosarcoma tumor; 60 min after injection,1.96 percent dose per gram
same,"Tissue distribution of radioactivity, Tumor",9 L gliosarcoma tumor; [3],1.96 ± 0.10 percent dose per gram
same,"Tissue distribution of radioactivity, Blood",9 L gliosarcoma tumor; 120 min after injection,0.16 ± 0.01 percent dose per gram
same,"Tissue distribution of radioactivity, Bone",9 L gliosarcoma tumor; 120 min after injection,0.16 ± 0.01 percent dose per gram
same,"Tissue distribution of radioactivity, Heart",9 L gliosarcoma tumor; 120 min after injection,0.22 ± 0.02 percent dose per gram
same,"Tissue distribution of radioactivity, Kidney",9 L gliosarcoma tumor; 120 min after injection,3.64 ± 0.26 percent dose per gram
same,"Tissue distribution of radioactivity, Liver",9 L gliosarcoma tumor; 120 min after injection,0.25 ± 0.02 percent dose per gram
same,"Tissue distribution of radioactivity, Lung",9 L gliosarcoma tumor; 120 min after injection,0.24 ± 0.03 percent dose per gram
same,"Tissue distribution of radioactivity, Muscle",9 L gliosarcoma tumor; 120 min after injection,0.21 ± 0.01 percent dose per gram
same,"Tissue distribution of radioactivity, Pancreas",9 L gliosarcoma tumor; 120 min after injection,1.42 ± 0.17 percent dose per gram
same,"Tissue distribution of radioactivity, Spleen",9 L gliosarcoma tumor; 120 min after injection,0.32 ± 0.02 percent dose per gram
same,"Tissue distribution of radioactivity, Testis",9 L gliosarcoma tumor; 120 min after injection,0.11 ± 0.003 percent dose per gram
same,"Tissue distribution of radioactivity, Tumor",9 L gliosarcoma tumor; 120 min after injection,1.87 percent dose per gram
same,"Tissue distribution of radioactivity, Tumor",9 L gliosarcoma tumor; [4],1.87 ± 0.2 percent dose per gram
same,"Tissue distribution of radioactivity, Brain",9 L gliosarcoma tumor; 5 min after injection,0.035 ± 0.002 percent dose per gram
same,"Tissue distribution of radioactivity, Brain",9 L gliosarcoma tumor; 60 min after injection,0.054 percent dose per gram
same,"Tissue distribution of radioactivity, Brain",9 L gliosarcoma tumor; [3],0.054 ± 0.01 percent dose per gram
same,"Tissue distribution of radioactivity, Brain",9 L gliosarcoma tumor; 120 min after injection,0.050 percent dose per gram
same,"Tissue distribution of radioactivity, Brain",9 L gliosarcoma tumor; [4],0.050 ± 0.004 percent dose per gram
same,uptake in normal brain tissue contralateral to the tumor,"9 L gliosarcoma tumor; tumor-bearing rats, each time point (5, 60, 120 minutes)",approximately 0.05 % ID/g
same,"Tissue distribution of radioactivity, Blood",[1]; 5 min after injection,0.53 ± 0.03 percent dose per gram
same,"Tissue distribution of radioactivity, Bone",[1]; 5 min after injection,0.27 ± 0.005 percent dose per gram
same,"Tissue distribution of radioactivity, Brain",[1]; 5 min after injection,0.04 ± 0.003 percent dose per gram
same,"Tissue distribution of radioactivity, Heart",[1]; 5 min after injection,0.29 ± 0.012 percent dose per gram
same,"Tissue distribution of radioactivity, Kidney",[1]; 5 min after injection,6.36 percent dose per gram
same,"Tissue distribution of radioactivity, Liver",[1]; 5 min after injection,0.65 percent dose per gram
same,"Tissue distribution of radioactivity, Lung",[1]; 5 min after injection,0.55 ± 0.006 percent dose per gram
same,"Tissue distribution of radioactivity, Muscle",[1]; 5 min after injection,0.22 ± 0.013 percent dose per gram
same,"Tissue distribution of radioactivity, Pancreas",[1]; 5 min after injection,3.46 percent dose per gram
same,"Tissue distribution of radioactivity, Spleen",[1]; 5 min after injection,0.83 ± 0.05 percent dose per gram
same,"Tissue distribution of radioactivity, Testis",[1]; 5 min after injection,0.17 ± 0.010 percent dose per gram
same,"Tissue distribution of radioactivity, Kidney",[1]; [2],6.36 ± 0.36 percent dose per gram
same,"Tissue distribution of radioactivity, Liver",[1]; [2],0.65 ± 0.05 percent dose per gram
same,"Tissue distribution of radioactivity, Pancreas",[1]; [2],3.46 ± 0.19 percent dose per gram
same,"Tissue distribution of radioactivity, Blood",[1]; 30 min after injection,0.25 ± 0.014 percent dose per gram
same,"Tissue distribution of radioactivity, Bone",[1]; 30 min after injection,0.22 ± 0.02 percent dose per gram
same,"Tissue distribution of radioactivity, Brain",[1]; 30 min after injection,0.05 ± 0.004 percent dose per gram
same,"Tissue distribution of radioactivity, Heart",[1]; 30 min after injection,0.29 ± 0.04 percent dose per gram
same,"Tissue distribution of radioactivity, Kidney",[1]; 30 min after injection,5.59 ± 0.28 percent dose per gram
same,"Tissue distribution of radioactivity, Liver",[1]; 30 min after injection,0.56 ± 0.04 percent dose per gram
same,"Tissue distribution of radioactivity, Lung",[1]; 30 min after injection,0.54 ± 0.12 percent dose per gram
same,"Tissue distribution of radioactivity, Muscle",[1]; 30 min after injection,0.22 ± 0.009 percent dose per gram
same,"Tissue distribution of radioactivity, Pancreas",[1]; 30 min after injection,2.93 ± 0.20 percent dose per gram
same,"Tissue distribution of radioactivity, Spleen",[1]; 30 min after injection,0.54 ± 0.03 percent dose per gram
same,"Tissue distribution of radioactivity, Testis",[1]; 30 min after injection,0.10 ± 0.006 percent dose per gram
same,"Tissue distribution of radioactivity, Blood",[1]; 60 min after injection,0.22 ± 0.02 percent dose per gram
same,"Tissue distribution of radioactivity, Bone",[1]; 60 min after injection,0.19 ± 0.03 percent dose per gram
same,"Tissue distribution of radioactivity, Brain",[1]; 60 min after injection,0.06 ± 0.004 percent dose per gram
same,"Tissue distribution of radioactivity, Heart",[1]; 60 min after injection,0.28 ± 0.013 percent dose per gram
same,"Tissue distribution of radioactivity, Kidney",[1]; 60 min after injection,4.74 ± 0.15 percent dose per gram
same,"Tissue distribution of radioactivity, Liver",[1]; 60 min after injection,0.50 ± 0.013 percent dose per gram
same,"Tissue distribution of radioactivity, Lung",[1]; 60 min after injection,0.44 ± 0.05 percent dose per gram
same,"Tissue distribution of radioactivity, Muscle",[1]; 60 min after injection,0.26 ± 0.02 percent dose per gram
same,"Tissue distribution of radioactivity, Pancreas",[1]; 60 min after injection,2.95 ± 0.27 percent dose per gram
same,"Tissue distribution of radioactivity, Spleen",[1]; 60 min after injection,0.50 ± 0.04 percent dose per gram
same,"Tissue distribution of radioactivity, Testis",[1]; 60 min after injection,0.12 ± 0.006 percent dose per gram
same,"Tissue distribution of radioactivity, Blood",[1]; 120 min after injection,0.15 ± 0.005 percent dose per gram
same,"Tissue distribution of radioactivity, Bone",[1]; 120 min after injection,0.13 ± 0.012 percent dose per gram
same,"Tissue distribution of radioactivity, Brain",[1]; 120 min after injection,0.05 ± 0.001 percent dose per gram
same,"Tissue distribution of radioactivity, Heart",[1]; 120 min after injection,0.23 ± 0.03 percent dose per gram
same,"Tissue distribution of radioactivity, Kidney",[1]; 120 min after injection,2.97 percent dose per gram
same,"Tissue distribution of radioactivity, Liver",[1]; 120 min after injection,0.48 percent dose per gram
same,"Tissue distribution of radioactivity, Lung",[1]; 120 min after injection,0.37 ± 0.10 percent dose per gram
same,"Tissue distribution of radioactivity, Muscle",[1]; 120 min after injection,0.19 ± 0.003 percent dose per gram
same,"Tissue distribution of radioactivity, Pancreas",[1]; 120 min after injection,2.48 percent dose per gram
same,"Tissue distribution of radioactivity, Spleen",[1]; 120 min after injection,0.33 ± 0.02 percent dose per gram
same,"Tissue distribution of radioactivity, Testis",[1]; 120 min after injection,0.10 ± 0.004 percent dose per gram
same,"Tissue distribution of radioactivity, Kidney",[1]; [4],2.97 ± 0.17 percent dose per gram
same,"Tissue distribution of radioactivity, Liver",[1]; [4],0.48 ± 0.03 percent dose per gram
same,"Tissue distribution of radioactivity, Pancreas",[1]; [4],2.48 ± 0.03 percent dose per gram
same,"uptake of radioactivity in heart, lung, bone, blood, muscle and testis","[1]; normal rats, 5 minutes",< 0.55 % ID/g
same,brain uptake of radioactivity,"[1]; normal rats, all time points",approximately 0.05 % ID/g
